pEC50, pIC50: −log10 of the molar value. Where two headings read alike, the source gives them in different places.
How the values were obtained:
[1] = system: acetylation level of α-tubulin in HCT116 cells; test: Assay on acetylation level of α-tubulin, HCT116 cells; type: cell-based; settings: Homo sapiens, HCT-116, 6 h
Experimental: A375/HCT116/HCC827 cells at a logarithmic growth phase were taken, digested with a […] (trypsin), centrifuged, counted, and plated in a 96-well plate at an appropriate cell density (30,000 cells/well) at 100 µL/well, and an appropriate amount of PBS was added around the plate for water sealing. The next day, the cells were treated with the compounds at different concentrations (starting at 100 μM, 5-fold dilution, 9 concentration gradients). After 6 h, the medium was pipetted out and the cells were washed twice with 100 μL of PBST. The cells were then immobilized in 4% paraformaldehyde, and the plate was incubated at room temperature for 20 min. The stationary liquid was discarded and the cells were washed with PBST. 150 μL of special blocking buffer (containing 1% Triton-100) was added to each well for blocking at room temperature for 2 h, and the plate was washed with PBS to remove excess blocking buffer. α-tubulin (DM1A) mouse mAb and acetyl-α-tubulin (Lys40) (D20G3) XP rabbit mAb were diluted at a 1:2000 ratio with a blocking buffer containing 0.033% Triton-100. The dilutions were added to the 96-well plate and the plate was incubated overnight at 4° C. Meanwhile, a blank control group was set. The next day, the plate was washed twice with PBST. Secondary anti-mouse IgG (H+L) (DyLight™ 680 conjugate) and anti-rabbit IgG (H+L) (DyLight™ 800 conjugate) were diluted at a 1:2000 ratio with a blocking buffer containing 0.033% Triton-100. The dilutions were added to a 96-well plate and the plate was incubated at room temperature for 2 h. The plate was washed twice with PBST and once with PBS. Fluorescence signals at 700 nm and 800 nm were detected with a Li-COR Odyssey two-color near-infrared laser imager.

[2] = biological target: HDAC6 (Homo sapiens (Human), UniProt Q9UBN7); test: HDAC6 enzymatic activity assay; type: biochemical
Experimental: The inhibitory activity of the compounds of the present application against HDAC6 was evaluated by an enzymatic activity assay. HDAC6 (Abcam), test compounds, and a 20 µM substrate solution (Ac-GAK(Ac)-AMC) were each added to a 384-well plate, and the plate was incubated at 37° C. for 30 min. […] and […] were added, and the plate was incubated at room temperature for 15 min. […] IC50 was obtained by fitting using GraphPadPrism 7.0 software.

[3] = Pharmacokinetic test in mice (IV and PO); type: in vivo, BALB/c mice; settings: for Cmax / AUC(0-inf) / AUC(0-t) / MRT inf / Vd / Tmax: BALB/c, mouse, plasma; for MRT inf: read-out: MRT(0-∞); for Vd: read-out: Vz
In short: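 BALB/c mice (3 per group) given single IV or intragastric doses; blood sampled orbitally at 0.25–24 h into K2-EDTA tubes for plasma. Concentrations measured by LC-MS/MS; parameters from non-compartmental analysis with linear-log trapezoidal method.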

[4] = Brain-to-blood drug concentration ratio of mice; type: in vivo; settings: mouse, 5 mg/kg PO
In short: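 Mice (9/group) dosed once IV or PO; orbital blood into K2-EDTA tubes for plasma, with brain homogenate, processed by acetonitrile precipitation (propafenone internal standard) and measured by LC-MS/MS. Ratio taken as brain tissue concentration over plasma concentration at the same time point.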

[5] = brain, read-out: Brain drug concentration
[6] = plasma, read-out: Blood drug concentration

HDAC6, sequence (Q9UBN7 whole entry): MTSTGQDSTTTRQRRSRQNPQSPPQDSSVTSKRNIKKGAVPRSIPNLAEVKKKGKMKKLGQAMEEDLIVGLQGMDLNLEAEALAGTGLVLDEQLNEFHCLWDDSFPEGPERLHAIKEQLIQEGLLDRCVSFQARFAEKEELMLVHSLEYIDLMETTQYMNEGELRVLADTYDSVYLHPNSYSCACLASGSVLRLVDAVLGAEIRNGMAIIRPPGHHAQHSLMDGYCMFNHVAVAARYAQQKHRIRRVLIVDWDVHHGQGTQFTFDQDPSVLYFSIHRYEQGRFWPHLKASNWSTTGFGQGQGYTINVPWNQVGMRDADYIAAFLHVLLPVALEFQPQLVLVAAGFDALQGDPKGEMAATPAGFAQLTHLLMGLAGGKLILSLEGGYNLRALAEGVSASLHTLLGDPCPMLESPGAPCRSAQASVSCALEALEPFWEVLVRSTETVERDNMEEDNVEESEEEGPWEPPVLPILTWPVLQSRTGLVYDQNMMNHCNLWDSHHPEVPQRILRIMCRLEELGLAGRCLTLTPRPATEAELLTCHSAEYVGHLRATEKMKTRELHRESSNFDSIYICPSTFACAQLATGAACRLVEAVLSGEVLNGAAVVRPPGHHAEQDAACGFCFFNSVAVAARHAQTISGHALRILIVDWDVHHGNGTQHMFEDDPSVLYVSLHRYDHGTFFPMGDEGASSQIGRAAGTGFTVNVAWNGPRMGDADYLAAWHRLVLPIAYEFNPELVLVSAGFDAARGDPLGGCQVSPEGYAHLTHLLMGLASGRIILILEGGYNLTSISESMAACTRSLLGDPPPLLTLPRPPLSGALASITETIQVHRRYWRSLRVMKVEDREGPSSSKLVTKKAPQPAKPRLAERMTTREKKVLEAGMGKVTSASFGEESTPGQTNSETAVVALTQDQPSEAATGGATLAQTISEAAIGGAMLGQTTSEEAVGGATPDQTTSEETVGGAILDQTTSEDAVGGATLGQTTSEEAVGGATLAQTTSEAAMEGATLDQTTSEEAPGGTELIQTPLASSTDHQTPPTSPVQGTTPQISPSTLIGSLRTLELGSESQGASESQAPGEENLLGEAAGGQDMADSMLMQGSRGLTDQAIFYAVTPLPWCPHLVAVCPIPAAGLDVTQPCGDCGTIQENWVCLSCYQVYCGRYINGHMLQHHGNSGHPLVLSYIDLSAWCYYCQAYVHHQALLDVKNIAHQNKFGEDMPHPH

CC(F)(F)C(=O)N[C@@H]1CCCC(F)(F)[C@H]1N1Cc2ccc(-c3nnc(C(F)F)o3)cc2S1(=O)=O [Compound 10]
pEC50 [1]: 6.58
pIC50 [2]: 7.37
Cmax ([3]; po, 5 mg/kg, read-out: C0/Cmax): 4.77 µM
AUC(0-inf) ([3]; mice, IV 1 mg/kg): 3.68 µM·h
AUC(0-t) ([3]; mice, IV 1 mg/kg): 3.48 µM·h
Cmax ([3]; mice, IV 1 mg/kg (C0)): 1.72 µM
MRT inf ([3]; mice, IV 1 mg/kg): 2.5 h
Vd ([3]; mice, IV 1 mg/kg): 1.5 L/kg
AUC(0-inf) ([3]; mice, PO 5 mg/kg): 21.5 µM·h
AUC(0-t) ([3]; mice, PO 5 mg/kg): 19.9 µM·h
Tmax ([3]; mice, PO 5 mg/kg): 0.5 h
MRT inf ([3]; mice, PO 5 mg/kg): 3.3 h
CLz ([3]; mice, IV 1 mg/kg): 8.3 mL/min/kg
t½z ([3]; mice, IV 1 mg/kg): 1.9 h
F ([3]; mice, PO 5 mg/kg): 117.1%
t½z ([3]; mice, PO 5 mg/kg): 2.1 h
concentration at 2 h [4, 5]: 338 ng/mL
concentration at 8 h ([4]; brain, 8 h, read-out: Brain drug concentration): 80 ng/mL
Kp at 2 h ([4]; brain/plasma): 0.17
Kp at 8 h ([4]; brain/plasma, 8 h): 0.29
concentration at 2 h [4, 6]: 2020 ng/mL
concentration at 8 h ([4]; plasma, 8 h, read-out: Blood drug concentration): 277 ng/mL

O=S1(=O)c2cc(-c3nnc(C(F)F)o3)ccc2CN1[C@@H](c1ccc(F)cn1)[C@H](O)c1ccc(F)cn1 (single isomer, unassigned) [Compound 88j-A-B]
pEC50 [1]: 6.21
pIC50 [2]: 6.80

O=C(N[C@@H]1CCCC[C@H]1N1Cc2ccc(-c3nnc(C(F)F)o3)cc2S1(=O)=O)C1CC1 [Compound 114]
pEC50 [1]: 6.45
pIC50 [2]: 7.01

CC(F)(F)C(=O)N[C@H]1[C@H](N2Cc3ccc(-c4nnc(C(F)F)o4)cc3S2(=O)=O)CCCC1(F)F [Compound 7]
pEC50 [1]: 6.61
pIC50 [2]: 7.25

O=S1(=O)c2cc(-c3nnc(C(F)F)o3)ccc2CN1[C@@H](c1ccccn1)[C@H](O)c1ccc(F)cn1 (single isomer, unassigned) [Compound 84j-A]
pEC50 [1]: 6.26
pIC50 [2]: 7.37

O=C(N[C@@H]1CCCC[C@H]1N1Cc2ccc(-c3nnc(C(F)F)o3)cc2S1(=O)=O)N1CCOCC1 [Compound 113]
pEC50 [1]: 6.62
Cmax ([3]; po, 5 mg/kg, read-out: C0/Cmax): 5.13 µM
AUC(0-inf) ([3]; mice, IV 1 mg/kg): 1.71 µM·h
AUC(0-t) ([3]; mice, IV 1 mg/kg): 1.7 µM·h
Cmax ([3]; mice, IV 1 mg/kg (C0)): 3.47 µM
MRT inf ([3]; mice, IV 1 mg/kg): 0.542 h
Vd ([3]; mice, IV 1 mg/kg): 1.03 L/kg
AUC(0-inf) ([3]; mice, PO 5 mg/kg): 8.71 µM·h
AUC(0-t) ([3]; mice, PO 5 mg/kg): 8.64 µM·h
Tmax ([3]; mice, PO 5 mg/kg): 0.25 h
MRT inf ([3]; mice, PO 5 mg/kg): 1.47 h
CLz ([3]; mice, IV 1 mg/kg): 19.58 mL/min/kg
t½z ([3]; mice, IV 1 mg/kg): 0.605 h
F ([3]; mice, PO 5 mg/kg): 101.8%
t½z ([3]; mice, PO 5 mg/kg): 1.149 h
concentration at 1 h ([4]; brain, 1 h, read-out: Brain drug concentration): 44.8 ng/mL
concentration at 2 h [4, 5]: 16.2 ng/mL
Kp at 1 h ([4]; brain/plasma, 1 h): 0.03
Kp at 2 h ([4]; brain/plasma): 0.02
concentration at 1 h ([4]; plasma, 1 h, read-out: Blood drug concentration): 1400 ng/mL
concentration at 2 h [4, 6]: 930 ng/mL

— patent US20250257060A1, “OXADIAZOLE COMPOUND, PHARMACEUTICAL COMPOSITION COMPRISING SAME, AND USE THEREOF” (SUZHOU GENHOUSE BIO CO., LTD., priority 2022, published 2025)
